In brackets after ≈: the same amount, converted by molar mass.
Columns and labels:
Type in all cases: cell-based
[1] = system: breast cancer cells (MDA-MB-231); test: MTT cytotoxicity assay, MDA-MB-231
Method: (§1) The cell lines were obtained from American Type Culture Collection (ATCC). With the usage of the Thiazolyl Blue Tetrazolium Bromide (MTT) method, various concentrations of the compounds (8c, 8f, 8h, 8i, and 8L) were evaluated for their cytotoxicity against the HSF, H460, A431, A549, and MDA-MB-231 cell lines. In brief HSF, H460, A431, A549 and MDA-MB-231 cell lines cells (10 × 10^3) were cultured in 96 well plate for overnight at 37 °C, 5% CO2 and 88% humidity. The total volume of used DMEM supplemented medium and the synthesized compounds supernatant was 200 µL with final concentrations of 25, 50, 100, 150 and 200 µg/ml. The plate was incubated at 37 °C, 5% CO2 for 48 h. After incubation, debris and dead cells were removed by washing three times with fresh medium. […] 200 µL dimethyl sulfoxide (DMSO) was added to each well and shook again for 5 min at 150 rpm, and then the viability of the cells was calculated by measuring the optical density at 630 nm subtracted from optical density at 570 nm. The relative cell viability (%) was determined as the given formula: Therelativecellviability%=ODS/ODC×100 whereas ODS is the mean optical density of sample, ODC is the mean OD of control group. […] Tumor-selectivity index (TS value) was determined by dividing the mean IC50 against normal cells by the mean IC50 against tumor cells. […]

[2] = system: MDA-MB-231 cells; test: Morphological modifications under phase-contrast microscope, MDA-MB-231; conditions: IC50 dose, 48 h, vs untreated control
Method: (§2) The present study aimed to investigate the in vitro effects of five synthetic compounds (8c, 8f, 8h, 8i, and 8L) on the morphological modifications of four different cancer cell lines (A431, A549, H460, and MDA-MB-231) compared with untreated control cells (Fig. 5). The cells were treated with the compounds at IC50 doses for 48 h, and the morphological changes were observed under a phase-contrast microscope.
(§3) All cells were treated with compounds (8c, 8f, 8h, 8i and 8L) at IC50 doses for 48 h as compared to untreated control cells.
(§4) The cell lines were obtained from American Type Culture Collection (ATCC). With the usage of the Thiazolyl Blue Tetrazolium Bromide (MTT) method, various concentrations of the compounds (8c, 8f, 8h, 8i, and 8L) were evaluated for their cytotoxicity against the HSF, H460, A431, A549, and MDA-MB-231 cell lines. […] 200 µL dimethyl sulfoxide (DMSO) was added to each well and shook again for 5 min at 150 rpm, and then the viability of the cells was calculated by measuring the optical density at 630 nm subtracted from optical density at 570 nm. The relative cell viability (%) was determined as the given formula: Therelativecellviability%=ODS/ODC×100 whereas ODS is the mean optical density of sample, ODC is the mean OD of control group. […]

[3] = system: H460 cells; test: Morphological modifications under phase-contrast microscope, H460; conditions: IC50 dose, 48 h, vs untreated control
Method: as §2, §3, §4

[4] = system: A549 cells; test: Morphological modifications under phase-contrast microscope, A549; conditions: IC50 dose, 48 h, vs untreated control
Method: as §2, §3, §4

[5] = system: lung cancer cells (H460); test: MTT cytotoxicity assay, H460; conditions: for selectivity index (SI): mean IC50 against normal cells (HSF) divided by IC50 against H460
Method: (§5) The cell lines were obtained from American Type Culture Collection (ATCC). With the usage of the Thiazolyl Blue Tetrazolium Bromide (MTT) method, various concentrations of the compounds (8c, 8f, 8h, 8i, and 8L) were evaluated for their cytotoxicity against the HSF, H460, A431, A549, and MDA-MB-231 cell lines. In brief HSF, H460, A431, A549 and MDA-MB-231 cell lines cells (10 × 10^3) were cultured in 96 well plate for overnight at 37 °C, 5% CO2 and 88% humidity. The total volume of used DMEM supplemented medium and the synthesized compounds supernatant was 200 µL with final concentrations of 25, 50, 100, 150 and 200 µg/ml. The plate was incubated at 37 °C, 5% CO2 for 48 h. After incubation, debris and dead cells were removed by washing three times with fresh medium. […] of MTT solution (5 mg/ml of MTT in PBS buffer) was added to each well and shook for 5 min at 150 rpm to thoroughly mix the MTT into the media. The cells were incubated at 37 °C and 5% CO2 for 3–5 h to metabolize MTT by viable cells. 200 µL dimethyl sulfoxide (DMSO) was added to each well and shook again for 5 min at 150 rpm, and then the viability of the cells was calculated by measuring the optical density at 630 nm subtracted from optical density at 570 nm. The relative cell viability (%) was determined as the given formula: Therelativecellviability%=ODS/ODC×100 whereas ODS is the mean optical density of sample, ODC is the mean OD of control group. […] Tumor-selectivity index (TS value) was determined by dividing the mean IC50 against normal cells by the mean IC50 against tumor cells. Thus obtained TS values seem to reflect the in vivo antitumor activity even though these cells were different types of cells (epithelial oral squamous cell carcinoma cell lines versus mesenchymal normal oral cells).

[6] = system: skin cancer cells (A431); test: MTT cytotoxicity assay, A431; conditions: for selectivity index (SI): mean IC50 against normal cells (HSF) divided by IC50 against A431
Method: as §5

[7] = system: A431 cells; test: Morphological modifications under phase-contrast microscope, A431; conditions: IC50 dose, 48 h, vs untreated control
Method: as §2, §3, §4

[8] = system: p53; test: qRT-PCR mRNA expression of p53 in A431 cells; conditions: IC50 concentration, 2 days, fold vs untreated control
Method: (§6) In this study, the impact of potent antitumor compounds (8c, 8f, 8h, 8i, and 8L) on the expression levels of four tumor regulating genes, namely Topoisomerase II beta (TOP2B), mitogen-activated protein kinase (MAP K) (p38), tumor protein interacted with the mouse double minute 2 homolog (p53), and Epidermal growth factor receptor (EGFR), was investigated in skin cancer cells (A431). Evaluation the relative changes in mRNA expression levels of four key genes by performing quantitative real-time PCR (qRT-PCR) before and after treatment for 2 days with IC50 concentrations of compounds (8c, 8f, 8h, 8i, and 8L). Total RNA was extracted from the cells using the Gene JET RNA Purification Kit (Thermo Scientific, USA), followed by cDNA synthesis using the cDNA Synthesis Kit (Thermo Scientific, USA) protocol. SYBR green kit and specific primers (Forward/Reverse) were used for qRT-PCR: 5′-[…]-3’/5’-[…]-3′ for p38, 5′-[…]-3′/5′-[…]-3′ for p53, 5’-[…]-3’/5’-[…]-3’ for TOP2B, and 5’-[…]-3’/5’-[…]-3’ for EGFR. The expression levels of the tested genes were determined by using the 2^−ΔΔCT equation to assess any changes in upregulation and/or downregulation of gene expression.

[9] = system: TOP2B; test: qRT-PCR mRNA expression of TOP2B in A431 cells; conditions: IC50 concentration, 2 days, fold vs untreated control
Method: as §6

[10] = system: p38; test: qRT-PCR mRNA expression of p38 in A431 cells; conditions: IC50 concentration, 2 days, fold vs untreated control
Method: as §6

[11] = system: EGFR; test: qRT-PCR mRNA expression of EGFR in A431 cells; conditions: IC50 concentration, 2 days, fold vs untreated control
Method: as §6

[12] = system: lung cancer cells (A549); test: MTT cytotoxicity assay, A549
Method: as §1

For `CC1(C)CC(=O)C2=C(C1)N(CCOC(=O)CN1C(=O)c3ccccc3C1=O)C1=C(C(=O)CC(C)(C)C1)C2c1ccc2c(c1)OCO2` [Compound 8L, 2-(9-(benzo[d][1,3]dioxol-5-yl)-3,3,6,6-tetramethyl-1,8-dioxo-2,3,4,5,6,7,8,9-octahydroacridin-10(1H)-yl)ethyl 2-(1,3-dioxoisoindolin-2-yl)acetate], the IC50 ([1]; Homo sapiens, MDA-MB-231 cells, MTT, 48 h, mean ± SEM) was 27.7 ± 2.7 µg/mL (≈ 44.3 µM), the “selectivity index (SI)” value ([1]; mean IC50 against normal cells (HSF) divided by IC50 against MDA-MB-231) was 4.4 and the morphological modifications [2] was “significant cell damage and alterations in cell morphology”.

For `CC1(C)CC(=O)C2=C(C1)N(CCOC(=O)CN1C(=O)c3ccccc3C1=O)C1=C(C(=O)CC(C)(C)C1)C2c1ccc(F)cc1` [Compound 8c, 2-(9-(4-fluorophenyl)-3,3,6,6-tetramethyl-1,8-dioxo-2,3,4,5,6,7,8,9-octahydroacridin-10(1H)-yl) ethyl 2-(1,3-dioxoisoindolin-2-yl) acetate], the morphological modifications [3] was “noticeable cell damage and alterations in the morphology” and the morphological modifications [4] was “significant cell damage and alterations in the morphology”.

In the case of `CC1(C)CC(=O)C2=C(C1)N(CCOC(=O)CN1C(=O)c3ccccc3C1=O)C1=C(C(=O)CC(C)(C)C1)C2c1ccc(-c2ccccc2)cc1` [Compound 8f, 2-(9-([1,1'-biphenyl]-4-yl)-3,3,6,6-tetramethyl-1,8-dioxo-2,3,4,5,6,7,8,9-octahydroacridin-10(1H)-yl) ethyl 2-(1,3-dioxoisoindolin-2-yl) acetate], the IC50 ([5]; Homo sapiens, NCI-H460, H460 cells, MTT, 48 h, mean ± SEM) is reported as 24.6 ± 3.4 µg/mL, the “selectivity index (SI)” value [5] is reported as 7.7 and the IC50 ([6]; Homo sapiens, A-431, A431 cells, MTT, 48 h, mean ± SEM) is reported as 11.9 ± 3.3 µg/mL. The “selectivity index (SI)” value [6] was 15.9, the morphological modifications [7] was “significant cell damage and alteration in the morphology” and the morphological modifications [3] was “noticeable cell damage and alterations in the morphology”. The morphological modifications [2] was “significant cell damage and alterations in cell morphology”, the morphological modifications [4] was “significant cell damage and alterations in the morphology” and the “relative change in mRNA expression level of p53” value [8] was “highest relative change”. The “relative change in mRNA expression level of TOP2B” value [9] was “lowest relative change”, the “relative change in mRNA expression level of p38” value [10] was “highest relative change” and the “relative change in mRNA expression level of EGFR” value [11] was “lowest relative change”.

`COc1ccc(C2C3=C(CC(C)(C)CC3=O)N(CCOC(=O)CN3C(=O)c4ccccc4C3=O)C3=C2C(=O)CC(C)(C)C3)cc1OC` [Compound 8h, 2-(9-(3,4-dimethoxyphenyl)-3,3,6,6-tetramethyl-1,8-dioxo-2,3,4,5,6,7,8,9-octahydroacridin-10(1H)-yl) ethyl 2-(1,3-dioxoisoindolin-2-yl) acetate] was tested, and the “selectivity index (SI)” value [5] was 3.5, the “selectivity index (SI)” value [6] was 4.5 and the “relative change in mRNA expression level of TOP2B” value [9] was “lowest relative change”. For the same compound, the “relative change in mRNA expression level of EGFR” value [11] was “lowest relative change”.

`COc1ccc(C2C3=C(CC(C)(C)CC3=O)N(CCOC(=O)CN3C(=O)c4ccccc4C3=O)C3=C2C(=O)CC(C)(C)C3)cc1` [Compound 8i, 2-(9-(4-methoxyphenyl)-3,3,6,6-tetramethyl-1,8-dioxo-2,3,4,5,6,7,8,9-octahydroacridin-10(1H)-yl) ethyl 2-(1,3-dioxoisoindolin-2-yl) acetate] was tested, and the IC50 ([12]; Homo sapiens, A549 cells, MTT, 48 h, mean ± SEM) was 37.4 ± 4.5 µg/mL, the “selectivity index (SI)” value ([12]; mean IC50 against normal cells (HSF) divided by IC50 against A549) was 4.0 and the morphological modifications [7] was “significant cell damage and alteration in the morphology”.
